Series [1] can be described thus: DPPH radical scavenging assay. Type of series: biochemical. Conditions: methanol, DPPH 20 µM, 30 min; mean ± SE. The method, then:
When reduced, the solution decolorizes in proportion to the strength and concentration of the antiradical compound tested. The results of this test are usually expressed as the concentration of the compound that reduces 50% of the radical (IC50, Table 1). […] However, no clear relationship between the carboxylic chain length and DPPH radical scavenging activity could be established. Antiradical activity was evaluated spectrophotometrically as the ability of the substances to reduce the DPPH radical as described previously with minor modifications.

A short description of series [2]: Folin–Ciocalteau reduction (FCR) assay, reducing capacity. The series is classed as biochemical. Conditions: gallic acid equivalents, mean ± SE. As for the experimental part:
Folin-Ciocalteu assay, commonly known as the total phenols assay, determines a sample reducing capacity. FCR contains heteropolyphosphotunstate-molybdates, which are reduced in aqueous milieu at pH ≈ 10 to blue species, presumably (PMoW11O40)^4- [29]. […] This is probably related to high hydrophobicity of these derivatives. Reducing capacity was evaluated using Folin-Ciocalteau reagent with minor modifications as described previously.

Series [3] concerns rat liver microsomal membranes. The series is described as follows: Inhibition of microsomal lipid peroxidation induced by tert-butyl hydroperoxide (TBARS). The series is classed as biochemical. To be noted: for IC50: male rat liver microsomes, tert-butylhydroperoxide 1 mM, 37 °C, 30 min, TBARS, mean ± SE, read-out: Lpx (IC50; µM). An excerpt: Lipid peroxidation is a type of oxidative degradation of lipids caused by free radicals in cell membranes, resulting in cell damage. The most notable initiators of this chain reaction in living cells are reactive oxygen species (ROS), such as OH· and HO2·, which combine with a hydrogen atom to make water and a fatty acid radical. We used tert-butyl hydroperoxide, a relatively stable organic peroxide, as initiator of peroxidation of rat liver microsomal membranes. The inhibition of this reaction depends not only on the free radical scavenging capacity, but also on the capacity of these compounds to interact with and penetrate lipid bilayers. Isoquercitrin derivatives differed considerably in their capacity to inhibit the peroxidation of microsomal membranes. […] A similar trend, e.g., improving the activity in medium chain derivatives with subsequent drop for longer chain esters, was reported for anti-proliferative activity of IQ monocarboxylic acid esters on the growth of tumoral Caco2 cells, and also for the inhibition of tyrosinase activity.
Pooled microsomes from male rat livers (M9066, Sigma-Aldrich, Prague, Czech Republic) were washed five times using centrifugation and phosphate-buffered saline (PBS, 13,500 rpm, 5 min, 4 °C) to remove sucrose. In addition, 400 µL of the diluted microsomal suspension (0.625 mg protein/mL in PBS), the compounds tested in 50 µL of dimethyl sulfoxide (DMSO, final concentration 5–2000 µM) and 50 µL of tert-butylhydroperoxide in PBS (final concentration 1 mM) were mixed and incubated at 37 °C for 30 min. Determination of lipid peroxidation products as thiobarbituric acid reactive substances (TBARS) and calculation of the IC50 values were performed as described previously.

A short description of series [4]: ABTS radical cation scavenging (Antioxidant Assay Kit). Type of series: biochemical. Conditions: Trolox equivalents; aqueous buffer pH 5; mean ± SE. As for the experimental part: Determination of ABTS scavenging activity involves an electron-transfer reaction. […] The capacity to scavenge the radical cation (ABTS^·) was evaluated using the Antioxidant Assay Kit (CS0790, Sigma-Aldrich, Prague, Czech Republic) and expressed as Trolox equivalents (TE) from the Trolox calibration curve.

Series [5] is described as follows: Partition coefficient (log P) in octan-1-ol/phosphate buffer pH 7.4. Conditions: for logP: octan-1-ol / 6.6 mM phosphate buffer pH 7.4, pH 7.4; for Partition Coefficient: octan-1-ol/6.6 mM phosphate buffer pH 7.4, 25 °C, mean ± SD, triplicate. The method, then: The hydrophobicity of the prepared compounds was determined by the measurement of partition coefficient P in a mixture of two immiscible phases—octan-1-ol and 6.6 mM phosphate buffer pH 7.4 to simulate physiological conditions. Before the use, octan-1-ol was stirred with the buffer for 16 h at 25 °C to achieve saturation of both phases, which were then separated.
Then, 150 µL of the stock solutions were mixed with 150 µL of the respective immiscible phase in microcentrifuge tubes (1.5 mL) and stirred (750 rpm) for 2 h at 25 °C in triplicates. Phases were separated and the solute concentration in each phase was determined in 96-well microtitration plates using Sunrise™ spectrophotometer (Schoeller Instruments, Prague, Czech Republic) at 400 nm. Log P was calculated as follows: log Poct/buffer = log([A]octan-1-ol/[A]buffer).

Values joined by “and” are separate entries in the source; they are usually repeats but may differ in a detail not shown here. Equal values may be shown once. Read-outs that look alike come from different tables or passages of the source. Marks after values point to notes of the source that are not given here.

On to `CCCCCCCC(=O)OC[C@H]1O[C@@H](Oc2c(-c3ccc(O)c(O)c3)oc3cc(O)cc(O)c3c2=O)[C@H](O)[C@@H](O)[C@@H]1O` [Compound 6, ((2R,3S,4S,5R,6S)-6-((2-(3,4-Dihydroxyphenyl)-5,7-dihydroxy-4-oxo-4H-chromen-3-yl)oxy)-3,4,5-trihydroxytetrahydro-2H-pyran-2-yl)methyl octanoate], for which the figures for the IC50 in series [1] and in series [3] were 2.23 ± 0.08 µM and 186 ± 3 µM, respectively. In addition, the “FCR (GAE)” value in series [2] is reported as 1.47 ± 0.10 ^b GAE. In addition, the “ABTS (TE)” value in series [4] turned out to be 1.28 ± 0.07 TE.

Regarding `O=C(O)CCCCCCCCCCC(=O)OC[C@H]1O[C@@H](Oc2c(-c3ccc(O)c(O)c3)oc3cc(O)cc(O)c3c2=O)[C@H](O)[C@@H](O)[C@@H]1O` [Compound 11, 12-(((2R,3S,4S,5R,6S)-6-((2-(3,4-Dihydroxyphenyl)-5,7-dihydroxy-4-oxo-4H-chromen-3-yl)oxy)-3,4,5-trihydroxytetrahydro-2H-pyran-2-yl)methoxy)-12-oxododecanoic acid], the IC50 is 2.97 ± 0.22 µM in series [1]; 33 µM and 32.5 µM in series [3]. Further, the logP in series [5] turned out to be 0.48. In series [5], the “Partition Coefficient” value was determined as 3.00 ± 0.03. In addition, the “FCR (GAE)” value in series [2] is 1.58 GAE and 1.58 ± 0.05 ^b GAE. Further, the “ABTS (TE)” value in series [4] was 2.16 ± 0.08 ^i TE.

On to `CCCCCCCCCCCCCCCC(=O)OC[C@H]1O[C@@H](Oc2c(-c3ccc(O)c(O)c3)oc3cc(O)cc(O)c3c2=O)[C@H](O)[C@@H](O)[C@@H]1O` [Compound 8, ((2R,3S,4S,5R,6S)-6-((2-(3,4-Dihydroxyphenyl)-5,7-dihydroxy-4-oxo-4H-chromen-3-yl)oxy)-3,4,5-trihydroxytetrahydro-2H-pyran-2-yl)methyl palmitate], for which the IC50 in series [1] was 2.23 ± 0.03 µM; in series [3], 1090 ± 36 µM. For the same compound, the “FCR (GAE)” value in series [2] was 0.76 GAE and 0.76 ± 0.03 ^c GAE. For the same compound, the “ABTS (TE)” value in series [4] is 1.0 TE and 1.00 ± 0.06 ^j TE.

As for “((2R,3S,4R,5R,6S)-3-Acetoxy-6-((2-(3,4-dihydroxyphenyl)-5,7-dihydroxy-4-oxo-4H-chromen-3-yl)oxy)-4,5-dihydroxytetrahydro-2H-pyran-2-yl)methyl acetate [Compound 3]”, the values for the IC50 in series [1] and in series [3] were 2.15 ± 0.04 µM and 433 ± 19 µM, respectively. The “log P” value in series [5] (pH 7.4) turned out to be 1.59. Besides, in series [2], the “FCR (GAE)” value is reported as 1.67 ± 0.11 ^b GAE. The “ABTS (TE)” value in series [4] was 1.56 ± 0.04 TE.

For the compound `CC(=O)OC[C@H]1O[C@@H](Oc2c(-c3ccc(O)c(O)c3)oc3cc(O)cc(O)c3c2=O)[C@H](O)[C@@H](O)[C@@H]1O` [Compound 2, ((2R,3S,4S,5R,6S)-6-((2-(3,4-Dihydroxyphenyl)-5,7-dihydroxy-4-oxo-4H-chromen-3-yl)oxy)-3,4,5-trihydroxytetrahydro-2H-pyran-2-yl)methyl acetate], the IC50 in series [1] stood at 2.51 ± 0.1 µM. For the same compound, in series [5], the logP turned out to be 1.14 and the “Partition Coefficient” value is 13.76 ± 0.01. Moreover, the “FCR (GAE)” value in series [2] is reported as 1.63 ± 0.07 ^b GAE. Besides, the IC50 in series [3] was 42 ± 2.1 µM. Further, the “fold more active than IQ in inhibition of microsomal lipid peroxidation” value in series [3] (ratio of Lpx IC50 values relative to IQ (1)) is listed as 23 ×. In series [4], the “ABTS (TE)” value is on record as 2.04 ± 0.07 ^i TE.

Take `O=c1c(O)c(-c2ccc(O)c(O)c2)oc2cc(O)cc(O)c12` [Quercetin, quercetin, reference compound]: in series [5], the “Partition Coefficient” value amounted to 86.27 ± 0.02.

For the compound quercetin [reference compound], the IC50 came out at 3.78 ± 0.15 µM in series [1], 30 µM in series [3] (listed as quercetin) and 29.8 ± 0.6 µM in series [3]. The “FCR (GAE)” value in series [2] was found to be 2.80 ± 0.16 GAE; in series [2] (listed as quercetin), 2.80 GAE. The “ABTS (TE)” value in series [4] is 2.14 ± 0.10 ^i TE.

In series [1], `CCCC(=O)OC[C@H]1O[C@@H](Oc2c(-c3ccc(O)c(O)c3)oc3cc(O)cc(O)c3c2=O)[C@H](O)[C@@H](O)[C@@H]1O` [Compound 4, ((2R,3S,4S,5R,6S)-6-((2-(3,4-Dihydroxyphenyl)-5,7-dihydroxy-4-oxo-4H-chromen-3-yl)oxy)-3,4,5-trihydroxytetrahydro-2H-pyran-2-yl)methyl butyrate] registered an IC50 of 2.51 ± 0.17 µM. In series [5], the logP turned out to be 1.96 and the “Partition Coefficient” value is recorded as 90.64 ± 0.03. In series [2], the “FCR (GAE)” value is recorded as 1.72 ± 0.03 ^a GAE. Besides, the IC50 in series [3] came out at 24.1 ± 0.8 µM. For the same compound, the “ABTS (TE)” value in series [4] was 2.16 ± 0.08 ^i TE.

`CCCCCC(=O)OC[C@H]1O[C@@H](Oc2c(-c3ccc(O)c(O)c3)oc3cc(O)cc(O)c3c2=O)[C@H](O)[C@@H](O)[C@@H]1O` [Compound 5, ((2R,3S,4S,5R,6S)-6-((2-(3,4-Dihydroxyphenyl)-5,7-dihydroxy-4-oxo-4H-chromen-3-yl)oxy)-3,4,5-trihydroxytetrahydro-2H-pyran-2-yl)methyl hexanoate]: the IC50 is 3.07 ± 0.1 µM in series [1]; 20 µM and 19.7 µM in series [3]. This compound also returned a logP in series [5] of 2.1. Moreover, the “Partition Coefficient” value in series [5] is recorded as 126.43 ± 0.01. Moreover, the “FCR (GAE)” value in series [2] was 1.48 ± 0.05 ^b GAE. Moreover, the “ABTS (TE)” value in series [4] is listed as 2.11 ± 0.09 ^i TE.

As for `O=C(O)CCCC(=O)OC[C@H]1O[C@@H](Oc2c(-c3ccc(O)c(O)c3)oc3cc(O)cc(O)c3c2=O)[C@H](O)[C@@H](O)[C@@H]1O` [Compound 9, 6-(((2R,3S,4S,5R,6S)-6-((2-(3,4-Dihydroxyphenyl)-5,7-dihydroxy-4-oxo-4H-chromen-3-yl)oxy)-3,4,5-trihydroxytetrahydro-2H-pyran-2-yl)methoxy)-6-oxopentanoic acid], the IC50 in series [1] turned out to be 1.77 ± 0.06 µM. For the same compound, in series [5], the logP is -1.15 and the “Partition Coefficient” value is recorded as 0.07 ± 0.01. The “FCR (GAE)” value in series [2] is on record as 1.84 ± 0.05 ^a GAE. Moreover, in series [3], the IC50 came to 1340 ± 54 µM. In addition, in series [4], the “ABTS (TE)” value is on record as 2.13 ± 0.08 ^i TE.

For the compound `C[C@@H]1O[C@@H](OC[C@H]2O[C@@H](Oc3c(-c4ccc(O)c(O)c4)oc4cc(O)cc(O)c4c3=O)[C@H](O)[C@@H](O)[C@@H]2O)[C@H](O)[C@H](O)[C@H]1O` [Rutin, quercetin-3-O-[α-L-rhamnopyranosyl-(1→6)-β-D-glucopyranose], reference compound], the IC50 in series [1] was found to be 3.66 ± 0.39 µM; in series [3], 202 ± 8 µM. In addition, the “Partition Coefficient” value in series [5] is 0.41 ± 0.01. In addition, the “FCR (GAE)” value in series [2] is 2.19 ± 0.10 GAE. In addition, the “ABTS (TE)” value in series [4] amounted to 1.79 ± 0.09 TE.

In the case of `O=C(O)CCCCC(=O)OC[C@H]1O[C@@H](Oc2c(-c3ccc(O)c(O)c3)oc3cc(O)cc(O)c3c2=O)[C@H](O)[C@@H](O)[C@@H]1O` [Compound 10, 6-(((2R,3S,4S,5R,6S)-6-((2-(3,4-Dihydroxyphenyl)-5,7-dihydroxy-4-oxo-4H-chromen-3-yl)oxy)-3,4,5-trihydroxytetrahydro-2H-pyran-2-yl)methoxy)-6-oxohexanoic acid], in series [1], the IC50 was determined as 2.19 ± 0.12 µM. In addition, in series [5], the logP was -1 and the “Partition Coefficient” value was determined as 0.10 ± 0.01. Moreover, in series [2], the “FCR (GAE)” value is 1.46 ± 0.14 ^b GAE. Further, the IC50 in series [3] amounted to 250 ± 19 µM. The “ABTS (TE)” value in series [4] is reported as 2.12 ± 0.10 ^i TE.

In the case of `CCCCCCCCCCCC(=O)OC[C@H]1O[C@@H](Oc2c(-c3ccc(O)c(O)c3)oc3cc(O)cc(O)c3c2=O)[C@H](O)[C@@H](O)[C@@H]1O` [Compound 7, ((2R,3S,4S,5R,6S)-6-((2-(3,4-Dihydroxyphenyl)-5,7-dihydroxy-4-oxo-4H-chromen-3-yl)oxy)-3,4,5-trihydroxytetrahydro-2H-pyran-2-yl)methyl dodecanoate], the figures for the IC50 in series [1] and in series [3] were 1.58 ± 0.05 µM and 432 ± 24 µM, respectively. For the same compound, the “FCR (GAE)” value in series [2] is 0.63 GAE and 0.63 ± 0.07 ^c GAE. Further, the “ABTS (TE)” value in series [4] is listed as 1.06 ± 0.09 ^j TE.
